{"source": "paper PMC11988454", "about": "“Discovery of synthetic small molecules targeting the central regulator of Salmonella pathogenicity” (Science Advances, 2025)", "key": {"HilD mutants": {"tested_on": "HilD mutants", "experiment": "Alanine scan, plasmid-based whole-cell PhilA activation assay", "design": "species or system S. Typhimurium", "details": "C26 100 μM", "experimental": "A plasmid-based assay in a ΔSPI-1 background strain was developed to facilitate the introduction of point mutations in hilD. The Rha cassette (rhaS, rhaR, and Prha) was first deleted from the pT10 backbone ([67]). The fragment PhilD-hilD-PhilA-sfGFP was then inserted upstream of the terminator rrnB. hilD was then deleted from the resulting plasmid to serve as a negative control. Site-directed mutagenesis was performed using KOD polymerase (Novagen). The cell-based fluorescence assay was performed as described above. Statistical analysis was performed by applying a first Bonferroni’s multiple comparisons test to compare treated and untreated conditions within each strain (shown in Fig. 4E) and a second same test to compare the treated mutants to the treated WT condition. The absence of significance in both tests corresponds to mutations inactivating HilD. Significance in the first but not the second test corresponds to a phenotype similar to that of the WT."}, "HilD": {"target": "T1, HilD (Salmonella typhimurium, UniProt P0CL08)", "T1 construct": "His6-SUMO (N, cleaved yes); made in house; host or cells: E. coli C41(DE3)", "T1 sequence (P0CL08 whole entry, the tested form may be a part)": "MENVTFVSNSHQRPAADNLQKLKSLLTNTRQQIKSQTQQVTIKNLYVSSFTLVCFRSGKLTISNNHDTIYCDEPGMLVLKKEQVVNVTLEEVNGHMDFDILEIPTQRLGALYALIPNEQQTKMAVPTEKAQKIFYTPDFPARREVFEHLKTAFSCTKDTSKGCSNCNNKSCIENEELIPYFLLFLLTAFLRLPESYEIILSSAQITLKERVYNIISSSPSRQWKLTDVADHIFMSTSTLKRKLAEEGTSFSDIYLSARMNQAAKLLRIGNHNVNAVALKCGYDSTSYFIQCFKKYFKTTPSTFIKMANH", "experiment": "EMSA, binding to hilA promoter, HilD", "format": "biochemical, S. Typhimurium", "experimental": "(§1) EMSAs were performed similarly to as described previously ([39]) using a 62–base pair double-stranded (dsDNA) fragment of the hilA promoter, encompassing the A1 binding site ([82]). dsDNA fragments were generated by melting the complementary primers PhilA_A1_f / PhilA_A1_r (table S10) together in TE buffer [10 mM Tris (pH 8.0) and 1 mM EDTA] at 95°C for 10 min before slowly cooling to r.t. The forward primer was modified with a 5′-Cy5 fluorescent dye for detection. The protein (600 nM) was incubated with 50 nM labeled DNA in EMSA buffer [20 mM Tris (pH 8.0), 100 mM KCl, 100 μM EDTA, and 3% glycerol]. C26 was diluted first in DMSO and subsequently 1:100 into the protein-DNA sample. Samples were incubated at 37°C for 15 min, supplemented with diluted DNA loading dye, and separated on a 1.5-mm-thick, 6% (w/v) TBE polyacrylamide gel at 6°C at a constant voltage of 100 V. Gels were imaged using a ChemiDocMP imaging system (Bio-Rad)."}, "SPI-encoded genes": {"tested_on": "SPI-encoded genes", "format": "cell-based, S. Typhimurium", "experimental": "Salmonella was grown for 5 hours at 37°C in LB medium in the presence of 100 μM C26 or 1% (v/v) DMSO as a control. After growth, bacteria were harvested by centrifugation, and total RNA was isolated using the Qiagen RNeasy mini kit according to the manufacturer’s protocol. RNA-seq was performed on a HiSeq2500 with a 2 x 125–base pair paired-end read protocol. The Illumina Casava software was used to demultiplex the sequenced reads providing individual raw fastq sample files. Raw fastq files were prefiltered using the chastity filter to remove reads that contain a “Y” flag. FastQC (https://www.bioinformatics.babraham.ac.uk/projects/fastqc/, version v0.11.4) was used to determine the quality of the resulting fastq files. Subsequently, an adapter trimming/removal step was conducted with Cutadapt (https://pypi.python.org/pypi/cutadapt/, version 1.8.3). […] TopHat2 (https://ccb.jhu.edu/software/tophat/index.shtml, version v2.0.12) was used as aligner to map the remaining quality controlled reads to the Salmonella genome. Read counting to features (e.g., genes or exons) in the genome was performed with HTSeq-count (https://htseq.readthedocs.io/en/master/htseqcount.html, version 0.6.0.). Counting was performed using “union” mode on the feature “gene.” The stranded option was also set to “–stranded=no” to indicate to count features on both strands. Furthermore, the -r parameter from HTSeq was set to “pos” as this is the default of the output of TopHat’s “accepted_hits.bam” mapping file. For differential expression analysis, the raw read count table resulting from HTSeq counting is used and fed into the R package DESeq2 (version 1.10.1). Graphs were also produced in the R language (R version 3.2.1) mainly using the R package ggplot2 (version 2.2.0). Reports were produced using the R package rmarkdown (version 1.3)."}, "HilC": {"target": "T2, HilC (Salmonella typhimurium, UniProt E1WAB2)", "T2 construct": "His6 followed by TEV protease cleavage site (N, cleaved yes); made in house; host or cells: E. coli C41(DE3)", "T2 sequence (E1WAB2 whole entry)": "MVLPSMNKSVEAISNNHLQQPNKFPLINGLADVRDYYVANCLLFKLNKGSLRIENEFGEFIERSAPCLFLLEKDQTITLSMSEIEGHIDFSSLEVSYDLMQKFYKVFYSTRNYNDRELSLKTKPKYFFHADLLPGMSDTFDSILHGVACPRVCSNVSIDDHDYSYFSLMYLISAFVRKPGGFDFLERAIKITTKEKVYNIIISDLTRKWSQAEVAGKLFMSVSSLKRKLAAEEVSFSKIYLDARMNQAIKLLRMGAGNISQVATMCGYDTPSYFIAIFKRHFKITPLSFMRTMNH", "experiment": "EMSA, binding to hilA promoter, HilC", "format": "biochemical, S. Typhimurium", "experimental": "as §1"}, "[1]": {"details": "C26 100 μM vs DMSO, single replicates (Fig 2E)"}, "[2]": {"details": "C26 100 μM, size of the down-regulation given without sign"}}, "note": "Where “and” joins values, the source holds several entries; their conditions need not be identical. Equal values may be shown once."}
{"smiles": "CN(CC(=O)NCc1ccc2c(c1)OCO2)Cc1ccc(Br)s1", "note": "[C26, N-(benzo[d][1,3]dioxol-5-ylmethyl)-2-{[(5-bromothiophen-2-yl)methyl](methyl)amino}acetamide]", "values": [{"measurement": "sensitivity of HilD I42A, I100A, N260A, K264A to C26", "setting": "HilD mutants", "result": "partial loss of sensitivity"}, {"measurement": "sensitivity of HilD L45A, Y46A, F98A, E102A, Y212A to C26", "setting": "HilD mutants", "result": "full loss of sensitivity"}, {"measurement": "DNA binding activity of HilD (hilA promoter)", "setting": "HilD", "result": "dose-dependent inhibition of the DNA binding activity"}, {"measurement": "Log2 Fold change STM0972", "setting": "SPI-encoded genes; [1]", "result": "-1.019 and -1.567 and -1.468"}, {"measurement": "Log2 Fold change STM05625", "setting": "SPI-encoded genes; [1]", "result": "-1.06 and -1.782 and -1.1981"}, {"measurement": "Log2 Fold change avrA", "setting": "SPI-encoded genes; [1]", "result": "-1.134 and -2.023 and -1.399"}, {"measurement": "Log2 Fold change hilA", "setting": "SPI-encoded genes; [1]", "result": "-3.571 and -4.424 and -3.961"}, {"measurement": "Log2 Fold change hilC", "setting": "SPI-encoded genes; [1]", "result": "-2.8 and -3.816 and -2.688"}, {"measurement": "Log2 Fold change hilD", "setting": "SPI-encoded genes; [1]", "result": "-1.794 and -2.09 and -1.995"}, {"measurement": "Log2 Fold change iacP", "setting": "SPI-encoded genes; [1]", "result": "-2.394 and -3.567 and -2.412"}, {"measurement": "Log2 Fold change iagB", "setting": "SPI-encoded genes; [1]", "result": "-3.642 and -4.006 and -3.534"}, {"measurement": "Log2 Fold change invA", "setting": "SPI-encoded genes; [1]", "result": "-3.221 and -3.81 and -3.166"}, {"measurement": "Log2 Fold change invB", "setting": "SPI-encoded genes; [1]", "result": "-2.867 and -3.637 and -3.183"}, {"measurement": "Log2 Fold change invC", "setting": "SPI-encoded genes; [1]", "result": "-2.536 and -3.183 and -2.8784"}, {"measurement": "Log2 Fold change invE", "setting": "SPI-encoded genes; [1]", "result": "-3.292 and -4.06 and -3.2144"}, {"measurement": "Log2 Fold change invF", "setting": "SPI-encoded genes; [1]", "result": "-3.621 and -4.389 and -3.592"}, {"measurement": "Log2 Fold change invG", "setting": "SPI-encoded genes; [1]", "result": "-3.834 and -4.335 and -3.589"}, {"measurement": "Log2 Fold change invH", "setting": "SPI-encoded genes; [1]", "result": "-3.135 and -3.596 and -3.2198"}, {"measurement": "Log2 Fold change invI", "setting": "SPI-encoded genes; [1]", "result": "-3.283 and -3.556 and -3.358"}, {"measurement": "Log2 Fold change orgA", "setting": "SPI-encoded genes; [1]", "result": "-1.913 and -2.484 and -2.0655"}, {"measurement": "Log2 Fold change orgB", "setting": "SPI-encoded genes; [1]", "result": "-1.03 and -1.516 and -1.313"}, {"measurement": "Log2 Fold change orgC", "setting": "SPI-encoded genes; [1]", "result": "-0.8446 and -1.317 and -1.218"}, {"measurement": "Log2 Fold change pagC", "setting": "SPI-encoded genes; [1]", "result": "-0.9557 and -1.642 and -1.303"}, {"measurement": "Log2 Fold change pipB", "setting": "SPI-encoded genes; [1]", "result": "-1.346 and -1.626 and -1.791"}, {"measurement": "Log2 Fold change prgH", "setting": "SPI-encoded genes; [1]", "result": "-2.242 and -3.146 and -2.589"}, {"measurement": "Log2 Fold change prgI", "setting": "SPI-encoded genes; [1]", "result": "-2.528 and -3.17 and -2.85"}, {"measurement": "Log2 Fold change prgJ", "setting": "SPI-encoded genes; [1]", "result": "-2.351 and -3.201 and -2.717"}, {"measurement": "Log2 Fold change prgK", "setting": "SPI-encoded genes; [1]", "result": "-2.159 and -2.912 and -2.508"}, {"measurement": "Log2 Fold change rtsA", "setting": "SPI-encoded genes; [1]", "result": "-3.522 and -4.691 and -3.546"}, {"measurement": "Log2 Fold change sicA", "setting": "SPI-encoded genes; [1]", "result": "-2.525 and -3.5667 and -2.5609"}, {"measurement": "Log2 Fold change sicP", "setting": "SPI-encoded genes; [1]", "result": "-1.008 and -1.8772 and -1.275"}, {"measurement": "Log2 Fold change sifB", "setting": "SPI-encoded genes; [1]", "result": "-1.447 and -2.07 and -1.848"}, {"measurement": "Log2 Fold change sipA", "setting": "SPI-encoded genes; [1]", "result": "-2.154 and -3.4073 and -2.1103"}, {"measurement": "Log2 Fold change sipB", "setting": "SPI-encoded genes; [1]", "result": "-2.364 and -3.5554 and -2.316"}, {"measurement": "Log2 Fold change sipC", "setting": "SPI-encoded genes; [1]", "result": "-2.344 and -3.615 and -2.313"}, {"measurement": "Log2 Fold change sipD", "setting": "SPI-encoded genes; [1]", "result": "-2.421 and -3.506 and -2.2134"}, {"measurement": "Log2 Fold change sopB", "setting": "SPI-encoded genes; [1]", "result": "-1.308 and -2.976 and -1.42"}, {"measurement": "Log2 Fold change sopD", "setting": "SPI-encoded genes; [1]", "result": "-1.407 and -0.6715 and -1.948"}, {"measurement": "Log2 Fold change sopE2", "setting": "SPI-encoded genes; [1]", "result": "-1.5 and -2.647 and -1.472"}, {"measurement": "Log2 Fold change spaN", "setting": "SPI-encoded genes; [1]", "result": "-2.873 and -3.527 and -3.123"}, {"measurement": "Log2 Fold change spaO", "setting": "SPI-encoded genes; [1]", "result": "-2.648 and -3.446 and -2.941"}, {"measurement": "Log2 Fold change spaP", "setting": "SPI-encoded genes; [1]", "result": "-2.823 and -3.907 and -2.993"}, {"measurement": "Log2 Fold change spaQ", "setting": "SPI-encoded genes; [1]", "result": "-3 and -2.087 and -2.907"}, {"measurement": "Log2 Fold change spaR", "setting": "SPI-encoded genes; [1]", "result": "-1.963 and -4.022 and -1.926"}, {"measurement": "Log2 Fold change spaS", "setting": "SPI-encoded genes; [1]", "result": "-2.051 and -2.854 and -2.155"}, {"measurement": "Log2 Fold change sprB", "setting": "SPI-encoded genes; [1]", "result": "-2.031 and -3.538 and -1.986"}, {"measurement": "Log2 Fold change ssaG", "setting": "SPI-encoded genes; [1]", "result": "-1.637 and -2.322 and -2.8413"}, {"measurement": "log2 fold change expression RtsA", "setting": "SPI-encoded genes; [2]", "result": 3.82}, {"measurement": "log2 fold change expression hilA", "setting": "SPI-encoded genes; [2]", "result": 3.94}, {"measurement": "log2 fold change expression hilC", "setting": "SPI-encoded genes; [2]", "result": 3.02}, {"measurement": "log2 fold change expression hilD", "setting": "SPI-encoded genes; [2]", "result": 1.95}, {"measurement": "DNA binding activity of HilC (hilA promoter)", "setting": "HilC", "result": "no effect"}]}
